In patent US7348332B2, “(3,4-dihydro-quinazolin-2-yl)-indan-1-yl-amines” (Hoffmann-La Rochse Inc., priority 2005, dated 2008):

Target: T1, recombinant human 5-HT5A receptor (Homo sapiens, UniProt P47898)
T1 construct: expressed in transfected cells; host or cells: HEK-EBNA (Human Embryonic Kidney-EBNA) cells, transient cDNA expression; membranes
Test: [3H]LSD radioligand binding assay, membranes from HEK-EBNA cells transiently expressing 5-HT5A receptors
Conditions: [3H]LSD approximately 1 nM; HEK-EBNA cell membranes; SPA beads; 120 min at room temperature; Ki from IC50 by Cheng-Prussoff equation
Procedure: A [^3H]LSD radioligand binding assay was used to determine the affinity of the compounds for the recombinant human 5-HT5A receptor, in membranes from transiently (cDNA) expressed 5-HT5A receptors in Human Embryonic Kidney-EBNA (HEK-EBNA) cells. Assay buffer consisted of Tris (50 mM) buffer containing 1 mM EGTA, 10 mM MgCl2 (pH 7.4) and 10 μM pargyline. The binding assay was carried out in 96-well-plates in the presence of [^3H]LSD (approximately 1 nM), approximately 2 μg/well of membrane protein, and 0.5 mg of Ysi-poly-1-lysine SPA beads in a final volume of 200 μl of buffer. Non-specific binding was defined using methiothepin 2 μM. Compounds were tested at 10 concentrations. All assays were conducted in duplicate and repeated at least two times. Assay plates were incubated for 120 min at room temperature before centrifugation. Bound ligand was determined using a Packard Topcount scintillation counter. IC50 values were calculated using a non-linear curve fitting program and Ki values calculated using the Cheng-Prussoff equation.

T1 sequence (P47898 whole entry): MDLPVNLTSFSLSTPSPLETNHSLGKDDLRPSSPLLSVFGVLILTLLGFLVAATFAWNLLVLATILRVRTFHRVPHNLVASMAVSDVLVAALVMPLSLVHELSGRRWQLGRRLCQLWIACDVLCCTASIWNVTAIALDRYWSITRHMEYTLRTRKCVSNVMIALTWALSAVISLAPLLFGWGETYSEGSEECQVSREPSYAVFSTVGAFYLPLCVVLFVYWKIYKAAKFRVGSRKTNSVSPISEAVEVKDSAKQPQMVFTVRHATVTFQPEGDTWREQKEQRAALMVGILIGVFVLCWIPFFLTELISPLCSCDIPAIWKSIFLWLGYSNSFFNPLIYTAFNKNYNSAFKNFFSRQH

| Structure (SMILES) | Ki [nM] |
| --- | --- |
| c1ccc(C2NC(NC3CCc4ccccc43)=Nc3ccccc32)cc1 (centres unmarked) [Example 14, Indan-1-yl-(4-phenyl-3,4-dihydro-quinazolin-2-yl)-amine] | 310 |
| Fc1cccc2c1CNC(NC1CCc3ccccc31)=N2 (centres unmarked) [Example 6, (5-Fluoro-3,4-dihydro-quinazolin-2-yl)-indan-1-yl-amine] | 48 |
| Clc1ccc2c(c1Cl)CNC(NC1CCc3ccccc31)=N2 (centres unmarked) [Example 5, (5,6-Dichloro-3,4-dihydro-quinazolin-2-yl)-indan-1-yl-amine] | 39 |
| FC(F)(F)c1ccc2c(c1)N=C(NC1CCc3ccccc31)NC2 (centres unmarked) [Example 13, Indan-1-yl-(7-trifluoromethyl-3,4-dihydro-quinazolin-2-yl)-amine] | 260 |
| Clc1ccc2c(c1)N=C(NC1CCc3ccccc31)NC2 (centres unmarked) [Example 12, (7-Chloro-3,4-dihydro-quinazolin-2-yl)-indan-1-yl-amine] | 174 |
| CC1NC(NC2CCc3ccccc32)=Nc2cc(Cl)c(Cl)cc21 (centres unmarked) [Example 10, (6,7-Dichloro-4-methyl-3,4-dihydro-quinazolin-2-yl)-indan-1-yl-amine] | 71 |
| Cc1cccc2c1N=C(NC1CCc3ccccc31)NC2 (centres unmarked) [Example 3, Indan-1-yl-(8-methyl-3,4-dihydro-quinazolin-2-yl)-amine] | 32 |
| Clc1ccc(Cl)c(C2NC(NC3CCc4ccccc43)=Nc3ccccc32)c1 (stereo in doubt) [Example 20, [4-(2,5-Dichloro-phenyl)-3,4-dihydro-quinazolin-2-yl]-(R)-indan-1-yl-amine] | 550 |
| Cc1ccc2c(c1)CNC(NC1CCc3ccccc31)=N2 (centres unmarked) [Example 7, Indan-1-yl-(6-methyl-3,4-dihydro-quinazolin-2-yl)-amine] | 50 |
| Clc1ccc(Cl)c(C2NC(NC3CCc4ccccc43)=Nc3ccccc32)c1 (stereo in doubt) [Example 19, [4-(2,5-Dichloro-phenyl)-3,4-dihydro-quinazolin-2-yl]-(S)-indan-1-yl-amine] | 550 |
| CC1NC(NC2CCc3ccccc32)=Nc2ccccc21 (centres unmarked) [Example 9, Indan-1-yl-(4-methyl-3,4-dihydro-quinazolin-2-yl)-amine] | 80 |
| c1ccc2c(c1)CNC(N[C@H]1CCc3ccccc31)=N2 [Example 17, (3,4-Dihydro-quinazolin-2-yl)-(S)-indan-1-yl-amine] | 350 |
| c1ccc2c(c1)CC[C@H]2NC1=Nc2ccccc2C(c2ccsc2)N1 (stereo partly drawn) [Example 23, (R)-Indan-1-yl-(4-thiophen-3-yl-3,4-dihydro-quinazolin-2-yl)-amine] | 133 |

More lines, in order of falling Ki, values ahead:

| Ki [nM] | Structure (SMILES) |
| --- | --- |
| 1200 | Cc1noc(C)c1C1NC(N[C@H]2CCc3ccccc32)=Nc2ccccc21 (stereo partly drawn) [Example 26, [4-(3,5-Dimethyl-isoxazol-4-yl)-3,4-dihydro-quinazolin-2-yl]-(S)-indan-1-yl-amine] |
| 863 | Cc1noc(C)c1C1NC(N[C@@H]2CCc3ccccc32)=Nc2ccccc21 (stereo partly drawn) [Example 25, [4-(3,5-Dimethyl-isoxazol-4-yl)-3,4-dihydro-quinazolin-2-yl]-(R)-indan-1-yl-amine] |
| 655 | Clc1ccc2c(c1)C(c1ccccc1Cl)NC(NC1CCc3ccccc31)=N2 (stereo in doubt) [Example 22, [6-Chloro-4-(2-chloro-phenyl)-3,4-dihydro-quinazolin-2-yl]-(R)-indan-1-yl-amine] |
| 595 | Clc1ccc2c(c1)C(c1ccccc1Cl)NC(NC1CCc3ccccc31)=N2 (stereo in doubt) [Example 21, [6-Chloro-4-(2-chloro-phenyl)-3,4-dihydro-quinazolin-2-yl]-(S)-indan-1-yl-amine] |
| 410 | Clc1ccc2c(c1)C(c1ccccc1)NC(NC1CCc3ccccc31)=N2 (centres unmarked) [Example 18, (6-Chloro-4-phenyl-3,4-dihydro-quinazolin-2-yl)-indan-1-yl-amine] |
| 350 | COc1cc2c(cc1OC)N=C(NC1CCc3ccccc31)NC2 (centres unmarked) [Example 16, (6,7-Dimethoxy-3,4-dihydro-quinazolin-2-yl)-indan-1-yl-amine] |
| 310 | COc1ccc2c(c1)N=C(NC1CCc3ccccc31)NC2 (centres unmarked) [Example 15, Indan-1-yl-(7-methoxy-3,4-dihydro-quinazolin-2-yl)-amine] |
| 293 | c1ccc2c(c1)CC[C@@H]2NC1=Nc2ccccc2C(c2ccsc2)N1 (stereo partly drawn) [Example 24, (S)-Indan-1-yl-(4-thiophen-3-yl-3,4-dihydro-quinazolin-2-yl)-amine] |
| 125 | COc1ccc2c(c1)CNC(NC1CCc3ccccc31)=N2 (centres unmarked) [Example 11, Indan-1-yl-(6-methoxy-3,4-dihydro-quinazolin-2-yl)-amine] |
| 55 | Cc1cccc2c1CNC(NC1CCc3ccccc31)=N2 (centres unmarked) [Example 8, Indan-1-yl-(5-methyl-3,4-dihydro-quinazolin-2-yl)-amine] |
| 35 | Fc1ccc2c(c1)CNC(NC1CCc3ccccc31)=N2 (centres unmarked) [Example 4, (6-Fluoro-3,4-dihydro-quinazolin-2-yl)-indan-1-yl-amine] |
| 32 | Clc1cccc2c1CNC(NC1CCc3ccccc31)=N2 (centres unmarked) [Example 2, (5-Chloro-3,4-dihydro-quinazolin-2-yl)-indan-1-yl-amine] |
| 25 | c1ccc2c(c1)CNC(N[C@@H]1CCc3ccccc31)=N2 [Example 1, (3,4-Dihydro-quinazolin-2-yl)-(R)-indan-1-yl-amine] |
